Tests used:
[1] = system: middle cerebral artery occlusion model rats; assay: Neuroprotective effect in middle cerebral artery occlusion model (MCAo), TTC staining of brain slices; format: in vivo, Sprague-Dawley (SD) rats; conditions: intravenous right after ischemia induction: Clinoleic20% 200 mg/kg, SMOFlipid20% 500 mg/kg, oleic acid 100 mg/kg, sodium oleate solution 3 mg/kg, TTC staining 24 hours after reperfusion
Experimental: 8 week-old adult male Sprague-Dawley (SD) rats, obtained from Samtako (Korea), weighing 300 g were kept in an environment to adapt to the experimental environment while providing enough feed and water. After one week of adaptation period, the animals were used for the following experiments.
In detail, a nylon suture (4-0, 22 mm) was prepared by silicone coating about 5-8 mm of the end of the suture to have 0.36 mm of diameter, and was used for experiment. The rats prepared in Experimental Example 1.1 were anesthetized with 5% of isoflurane in a mixture of gas (i.e. 70% N2O and 30% O2). A syringe was inserted in one side for blood collection and a probe was inserted in the other side to measure blood pressure. Then the blood glucose level and the blood gas level in the collected blood were measured.
Through midline neck incision, right carotid artery and external carotid artery (ECA), which are branches of external carotid artery, were separated. […]
24 hours after the reperfusion, the animals were sacrificed by cervical spine dislocation. […] The files were stored in a computer, and the infarct area (%) in each tissue slice was calculated according to the following equation 1 by using an analysis program (i.e. Optimas 6.5, Bioscan). The adjusted volume of the infarct area was calculated through following Equation 2. […]

[2] = system: middle cerebral artery occlusion model rats; assay: Safety evaluation: death rate of experimental animals in the middle cerebral artery occlusion model; format: in vivo, Sprague-Dawley (SD) rats; conditions: MCAo rats, from the time of administration until sacrifice; intravenous: oleic acid 100 mg/kg, sodium oleate solution 3 mg/kg, Clinoleic20% 200 mg/kg, SMOFlipid20% 500 mg/kg
Experimental: Right after degenerative brain disease induction, death rate was calculated by counting number of dead animals in every group from the time of administration until they were sacrificed.

[3] = system: erythroclasis (hemolysis); conditions: cited from earlier work
[4] = system: transient local cerebral ischemia rat model; conditions: cited from earlier work

| SMILES | TTC-unstained area (neuronal cell death) of brain slices compared to the control group [1] | Death Rate (%) [2] [%] | Number of Dead Animals [2] | erythroclasis (hemolysis) in an in vitro test [3] | protective / neuroprotective efficacy [4] |
| --- | --- | --- | --- | --- | --- |
| CCCCCCCC/C=C\CCCCCCCC(=O)O [Oleic Acid, oleic acid] | less TTC-unstained area | 18.1 | 21 | incurs erythroclasis (hemolysis) | superior neuroprotective efficacy |
| CCCCCCCC/C=C\CCCCCCCC(=O)[O-].[Na+] [Sodium Oleate, sodium oleate] | less TTC-unstained area | 21.6 | 8 |  |  |
